In brackets after ≈: the same amount, converted by molar mass.
Experiments:
[1] = test system: C. neoformans; assay: In vivo efficacy evaluation (survival study) in an animal model; parameters: species or system CBA/J mice; settings: 20 mg/kg/day orally (gavage); mice infected intranasally with 5×10^5 C. neoformans cells
Description: For survival study, 4-week old CBA/J (Envigo) male mice were used. They were divided as ten mice for each treatment or control group. Mice were infected intranasally with 20 μl of a suspension containing 5×10^5 C. neoformans cells and subsequently treated orally with 20 mg/kg/day of compound A15 and fluconazole as drug control in a final volume of 100 μl of PEG30% in a saline buffer. The untreated control group mice received 100 μl of PEG30% in a saline buffer. Gavage was used as route of administration. At the end of the experiment, 80% of the mice treated with compound A15 survived whereas, only 30% of the mice treated with fluconazole survived. Mice were fed ad libitum and monitored every day for discomfort and meningitis signs. Mice showing weight loss, lethargy, tremor or inability to reach food or water were sacrificed and survival was counted until that day (see FIG. 2).

[2] = test system: C. neoformans; assay: In vitro susceptibility (MIC80) assay; type: cell-based; settings: Cryptococcus neoformans; lowest concentration that inhibited 80% of growth; YNB pH 7.0, HEPES, 37° C., 5% CO2
Description: MICs was determined following the methods of the Clinical and Laboratory Standards Institutes (CLSI) with modifications. Yeast Nitrogen Base (YNB) medium (pH 7.0, 0.2% glucose) buffered with HEPES was used for MIC studies. […] The compound was serially diluted from 16 to 0.03 μg/ml, in a 96-well plate. The inoculum was prepared as described in the CLSI protocol M27A3 guidelines. The plates were incubated at 37° C. with 5% CO2 for 24 to 72 h and the optical density was measure at 450 nm. The MICs was determined as the lowest concentration of the compound that inhibited 80% of growth compared to the control.

[3] = test system: C. neoformans cells; assay: In vitro killing activity (K100) assay; type: cell-based, Cryptococcus neoformans; settings: Cryptococcus neoformans; minimum concentration that kills 100% of C. neoformans cells in 48 h
Description: C. neoformans cells from a culture grown overnight were washed in PBS and resuspended in YNB buffered with HEPES at pH 7.4. The cells were counted, and 2×10^4 cells were incubated with different concentration of compounds in a final volume of 10 ml with a final concentration of 0.5% DMSO. The tubes were then incubated at 37° C. with 5% CO2 on a rotary shaker at 200 rpm. Aliquots were taken at time points and diluted, and […] were plated onto Yeast Extract-Peptone-Dextrose (YPD) plates. YPD plates were incubated in a 30° C. incubator and after 48 h, the numbers of CFU were counted and recorded.

melting point [°C] | SMILES | mice survived at the end of the experiment [1] [%] | MIC80 [2] [µg/mL] | MFC [3] [µg/mL]
 | OC(Cn1cncn1)(Cn1cncn1)c1ccc(F)cc1F [fluconazole, reference compound] | 30 |  | 
 | COCc1ccc(C(=O)N/N=C/c2cc(Br)cc(Br)c2O)cc1 [Compound A15, 4-Methoxymethyl-N′-(3,5-dibromo-2-hydroxybenzylidene)benzohydrazide] | 80 | 0.007 (≈ 0.0158 µM) | 0.03 (≈ 0.0679 µM)
193 to 197 | [N-]=[N+]=Nc1ccc(C(=O)N/N=C/c2cc(Br)cc(Br)c2O)cc1 [Compound A45, 4-Azido-N′-(3,5-dibromo-2-hydroxybenzylidene)benzohydrazide] |  | 0.06 (≈ 0.137 µM) | 

From patent US11414378B2, “Anti-fungals compounds targeting the synthesis of fungal sphingolipids” (THE RESEARCH FOUNDATION FOR THE STATE UNIVERSITY OF NEW YORK, priority 2017, dated 2022)
